# Assay results: patent US20260014246A1, “TREATMENT METHODS FOR VIRAL INFECTIONS” (priority 2022, published 2026)
# Where two headings read alike, the source gives them in different places. Peptide text beside a SMILES is read from it.
# Experiments:
# Vero-E6 cells = assay: Cytotoxic effects in Vero-E6 cells (Reliablue viability); format: cell-based
# Experimental: Data for peptide 4F (Ac-[…]-NH2; SEQ ID NO: 34) is also provided. In this example, Vero-E6 cells (96 well plate) were grown in EMEM containing 10% FBS and Pen/Strep at 37° C. and 5% CO2. Once cells reached 80% confluence, medium was replaced with fresh complete medium containing the indicated concentration of peptide (FIGS. 6A-B) or peptide complexed with DMPC (1:5 ratio weight:weight). Incubation period proceeded for 24 or 48 hrs. Cells were washed and replaced with complete medium containing fluorescent Reliablue reagent. Viability was then measured. Data are presented as percent viability compared to control (no additions). Results are presented as the mean±SEM.
# SARS-COV-2 Alpha [1] = conditions: for IC50: Alpha
# SARS-COV-2 Alpha [2] = assay: Remdizivir treatment of mice challenged with SARS-COV-2 Alpha; format: in vivo, female hACE2 Knock-in mice; conditions: 25 mg/kg bodyweight, single dose; 54000 pfu intranasal; untreated mice 20%
# H1N1A-California = format: in vivo, female C57BL/6J mice
# H1N1 [3] = assay: Second challenge with active H1N1 after intranasal peptide-inactivated H1N1; format: in vivo, female C57BL/6J mice; conditions: 14 days
# SARS-COV-2 Alpha [4] = assay: SARS-COV-2 Alpha pre-incubated with peptide and given intranasally to mice; format: in vivo, female hACE2 Knock-in mice; conditions: 54000 pfu pre-incubated ~45 min with 10 μM peptide; intranasal; 14 days
# SARS-COV-2 Alpha [5] = assay: Rechallenge with active SARS-COV-2 Alpha after EVE18 inactivated SARS-COV-2 Alpha (homologous); format: in vivo, female hACE2 Knock-in mice; conditions: rechallenge with 54000 pfu SARS-COV-2 Alpha eight weeks after initial challenge; 14 days
# SARS-COV-2 Delta [6] = assay: SARS-COV-2 Delta pre-incubated with EVE18 and given intranasally to mice; format: in vivo, female hACE2 Knock-in mice; conditions: 54000 pfu SARS-COV-2 Delta pre-incubated ~45 min with 10 μM peptide; intranasal; 14 days
# SARS-COV-2 Delta [7] = assay: Rechallenge with active SARS-COV-2 Delta after EVE18 inactivated SARS-COV-2 Alpha (heterologous); format: in vivo, female hACE2 Knock-in mice; conditions: rechallenge with 54000 pfu SARS-COV-2 Delta nine and seven weeks after initial challenge; two groups; 14 days
# SARS-COV-2 Alpha [8] = assay: Therapeutic dosing of EVE18 in mice challenged with SARS-COV-2 Alpha; format: in vivo, female hACE2 Knock-in mice
# H1N1 [9] = assay: Sub-cutaneous EVE14 in mice challenged intranasally with H1N1; format: in vivo, female C57BL/6J mice
# H1N1 [10] = assay: Second H1N1 challenge of mice that received H1N1 and sub-cutaneous EVE14; format: in vivo, female C57BL/6J mice; conditions: second challenge 1200 pfu H1N1 three weeks after the first
# [11] = [peptide-lipid] complex (DMPC 1:5 weight:weight), 48 hours incubation
# [12] = 300 micrograms sub-cutaneous 2 hr prior to virus and second dose 24 hr after virus
compound,measurement,setting,value
CC(=O)N[C@@H](CC(C)C)C(=O)N[C@@H](CCCNC(=N)N)C(=O)N[C@@H](CCCCN)C(=O)N[C@@H](CC(C)C)C(=O)N[C@@H](CCCNC(=N)N)C(=O)N[C@@H](CCCCN)C(=O)N[C@@H](CCCNC(=N)N)C(=O)N[C@@H](CC(C)C)C(=O)N[C@@H](CC(C)C)C(=O)N[C@@H](CCCNC(=N)N)C(=O)N[C@@H](CC(=O)O)C(=O)N[C@@H](Cc1c[nH]c2ccccc12)C(=O)N[C@@H](CC(C)C)C(=O)N[C@@H](CCCCN)C(=O)N[C@@H](C)C(=O)N[C@@H](Cc1ccccc1)C(=O)N[C@@H](Cc1ccc(O)cc1)C(=O)N[C@@H](CC(=O)O)C(=O)N[C@@H](CCCCN)C(=O)N[C@H](C(=O)N[C@@H](C)C(=O)N[C@@H](CCC(=O)O)C(=O)N[C@@H](CCCCN)C(=O)N[C@@H](CC(C)C)C(=O)N[C@@H](CCCCN)C(=O)N[C@@H](CCC(=O)O)C(=O)N[C@@H](C)C(=O)N[C@@H](Cc1ccccc1)C(N)=O)C(C)C [EVE4] (Ac-LRKLRKRLLRDWLKAFYDKVAEKLKEAF-NH2),cytotoxic effects,Vero-E6 cells; [11],lack of cytotoxic effects
same,cytotoxic effects,"Vero-E6 cells; peptide, 24 hours incubation",lack of cytotoxic effects
same,cytotoxic effects,"Vero-E6 cells; peptide, 48 hours incubation",lack of cytotoxic effects
same,antiviral activity in comparison to remdesivir,SARS-COV-2 Alpha [1],greater antiviral activity than remdesivir
same,SARS-COV-2 positive area reduced to,SARS-COV-2 Alpha [1]; 1 μM,~0
same,IC50,SARS-COV-2 Alpha [1],3 to 4.5 µM
"CC[C@H](C)[C@H](NC(=O)[C@H](CCCNC(=N)N)NC(=O)[C@H](C)NC(=O)[C@H](Cc1c[nH]c2ccccc12)NC(=O)[C@H](CO)NC(=O)CNC(=O)[C@H](CC(C)C)NC(=O)[C@H](Cc1ccccc1)NC(=O)[C@H](CCCNC(=N)N)NC(=O)[C@H](CCCNC(=N)N)NC(=O)[C@H](Cc1ccccc1)NC(=O)CNC(C)=O)C(=O)N[C@@H](Cc1ccc(O)cc1)C(=O)N[C@@H](CCCNC(=N)N)C(=O)N[C@@H](C)C(=O)N[C@@H](Cc1ccccc1)C(=O)N[C@H](C(=O)NCC(N)=O)C(C)C [EVEmR18L, Ac-GFRRFLGSWARIYRAFVG-NH2] (Ac-GFRRFLGSWARIYRAFVG-NH2)",cytotoxic effects,Vero-E6 cells; [11],lack of cytotoxic effects
same,cytotoxic effects,"Vero-E6 cells; peptide, 24 hours incubation",lack of cytotoxic effects
same,cytotoxic effects,"Vero-E6 cells; peptide, 48 hours incubation",lack of cytotoxic effects
same,antiviral activity in comparison to remdesivir,SARS-COV-2 Alpha [1],greater antiviral activity than remdesivir
same,reduction of the SARS-COV-2 positive area,SARS-COV-2 Alpha [1]; 1 μM,approximately 80%
same,SARS-COV-2 positive area reduced to,SARS-COV-2 Alpha [1]; 10 μM,~0
same,IC50,SARS-COV-2 Alpha [1],3 to 4.5 µM
"CCC(CC)COC(=O)[C@H](C)N[P@](=O)(OC[C@H]1O[C@@](C#N)(c2ccc3c(N)ncnn23)[C@H](O)[C@@H]1O)Oc1ccccc1 [remdesivir, reference compound]",mouse survival,SARS-COV-2 Alpha [2],40%
same,reduction of the SARS-COV-2 positive area,SARS-COV-2 Alpha [1]; 1 μM,approximately 65%
Ac-GFRRFYGSIWRFIRAFVG-NH2 [EVE18],bodyweight loss,H1N1A-California; 14 days,No mouse in this group died or lost significant bodyweight
same,mortality (frank mortality or weight loss of 25%),H1N1A-California; 14 days,No mouse in this group died
same,mortality after rechallenge,"H1N1 [3]; mice first given peptide-treated H1N1 (~45 min, ~10 μM), rechallenged several weeks later with 1200 pfu active H1N1A-California",No mouse in this group died during this period
same,survival,SARS-COV-2 Alpha [4],All mice in this group survived
same,rechallenged mice survived,SARS-COV-2 Alpha [5],~75%
same,survival,SARS-COV-2 Delta [6],All mice in this group survived
same,survival,SARS-COV-2 Delta [7],85%
same,mortality (timing),"SARS-COV-2 Alpha [8]; 300 micrograms 24 hr, 48 hr and 72 hrs after 54000 pfu virus",delayed mortality
same,survival,"SARS-COV-2 Alpha [8]; 300 micrograms 24 hr, 48 hr and 72 hrs after 54000 pfu virus, 10 days, virus alone 20%",50%
same,mortality (timing),SARS-COV-2 Alpha [8]; [12],delayed the mortality
same,survival,SARS-COV-2 Alpha [8]; [12],70%
Ac-RRFYGSIWRFIRAF-NH2 [EVE14],bodyweight loss,H1N1A-California; 14 days,incapable of inducing weight loss or frank death
same,death (frank death or 25% decrease in bodyweight),H1N1A-California; 14 days,incapable of inducing death
same,mortality (frank mortality or weight loss of 25%),H1N1A-California; 14 days,No mice in this group died
same,weight loss,H1N1A-California; 14 days,incapable of inducing weight loss
same,survival,"H1N1A-California; mouse, in vivo",survived this initial challenge
same,weight loss,"H1N1A-California; mouse, in vivo",lost little weight
same,bodyweight loss after second challenge,"H1N1 [3]; mice first given H1N1A pre-incubated with peptide for 60 minutes, second challenge 1200 pfu active H1N1 several weeks later",no mouse in the group which underwent a second H1N1 challenge lost significant bodyweight
same,weight loss,"H1N1 [9]; 300 micrograms sub-cutaneously plus 150 microgram boosters (24, 48 hr or 24-96 hr), 1200 pfu H1N1 intranasal, compared to untreated mice",significant delay in their weight loss which also was blunted
same,weight loss,"H1N1 [9]; Example 13, FIG. 14: 1200 pfu H1N1 intranasal, peptide sub-cutaneously",much reduced weight loss
same,survival (or bodyweight loss of less than 25%),H1N1 [9]; both sub-cutaneous treatment groups compared to H1N1 alone,significantly increased survival
same,mortality or weight loss after second challenge,H1N1 [10],does not elicit mortality or weight loss
same,mice survived,SARS-COV-2 Alpha [4],Ninety
